What follows are molecules tested on Leishmania major (assay: Antileishmanial activity against Leishmania major promastigotes after 72 hrs by Neubauer counting chamber based microscopy). Conditions: not given; call rule not given here.
Format: functional, organism-based

Row | SMILES | IC50
1 | O=[N+]([O-])c1ccc2ncnc(Nc3cccc(Cl)c3)c2c1 | Not Active
2 | O=[N+]([O-])c1ccc2ncnc(Nc3ccccc3)c2c1 | Not Active
3 | O=[N+]([O-])c1ccc2ncnc(Nc3ccc(F)cc3)c2c1 | Not Active
4 | O=[N+]([O-])c1ccc2ncnc(Nc3ccc(I)cc3)c2c1 | Not Active
5 | COc1cccc(Nc2ncnc3ccc([N+](=O)[O-])cc23)c1 | Not Active
6 | O=[N+]([O-])c1ccc2ncnc(Nc3ccc(Cl)cc3Cl)c2c1 | Not Active
7 | O=[N+]([O-])c1ccc2ncnc(Nc3ccc(Cl)cc3)c2c1 | Not Active
8 | O=[N+]([O-])c1ccc2ncnc(Nc3cccc(O)c3)c2c1 | Not Active
9 | COc1ccc(Nc2ncnc3ccc([N+](=O)[O-])cc23)cc1 | Not Active
10 | Cc1ccc(C)c(Nc2ncnc3ccc([N+](=O)[O-])cc23)c1 | Not Active
11 | O=[N+]([O-])c1ccc2ncnc(Nc3cc(Cl)ccc3Cl)c2c1 | Not Active
12 | O=[N+]([O-])c1ccc2ncnc(Nc3ccc(Cl)c(Cl)c3)c2c1 | Not Active
13 | COc1cc(OC)c(Nc2ncnc3ccc([N+](=O)[O-])cc23)cc1Cl | Not Active

Same assay, conditions: Leishmania major, 72 h; read-out: IC50

Row | SMILES | IC50
14 | O=[N+]([O-])c1ccc2ncnc(Nc3cccc(Br)c3)c2c1 | 9.04 µM
15 | Cc1ccc(Nc2ncnc3ccc([N+](=O)[O-])cc23)cc1C | 35.9 µM
16 | COc1ccccc1Nc1ncnc2ccc([N+](=O)[O-])cc12 | 4.37 µM
17 | Cc1ccc(Cl)cc1Nc1ncnc2ccc([N+](=O)[O-])cc12 | 44.9 µM
18 | COc1ccc(OC)c(Nc2ncnc3ccc([N+](=O)[O-])cc23)c1 | 12.3 µM
19 | O=[N+]([O-])c1ccc2ncnc(Nc3ccccc3Cl)c2c1 | 6.53 µM
20 | CSc1ccc(Nc2ncnc3ccc([N+](=O)[O-])cc23)cc1 | 1.87 µM
21 | Cc1ccc(Nc2ncnc3ccc([N+](=O)[O-])cc23)cc1 | 24 µM
22 | CCc1ccc(Nc2ncnc3ccc([N+](=O)[O-])cc23)cc1 | 38.2 µM
23 | CSc1cccc(Nc2ncnc3ccc([N+](=O)[O-])cc23)c1 | 19.9 µM
24 | O=[N+]([O-])c1ccc2ncnc(Nc3ccc(Br)cc3)c2c1 | 61.5 µM

These molecules were tested on Leishmania major (assay: Potency index, ratio IC50 of pentamidine to IC50 of compound for antilieshmanial activity against Leishmania major promastigotes). Conditions: not given.
Format: functional

Row | SMILES | Ratio IC50
25 | CSc1ccc(Nc2ncnc3ccc([N+](=O)[O-])cc23)cc1 | 3
